Assay: Aggregate number from ratio of molecular weights at pH 7 and pH 13 (GPC fractions)
Format: physicochemical
Experimental: The aggregate number of a β-glucan sample under a specified set of conditions can be determined by determining the average molecular weight of the polymer under those conditions. The β-glucan is then denatured, that is, subjected to conditions which separate any aggregates into their component single polymer chains. The average molecular weight of the denatured polymer is then determined. The ratio of the molecular weights of the aggregated and denatured forms of the polymer is the aggregate number. A typical β-glucan composition includes molecules having a range of chain lengths, conformations and molecular weights. Thus, the measured aggregate number of a β-glucan composition is the mass average aggregate number across the entire range of β-glucan molecules within the composition. […] For example, a measured aggregate number of about 6 or more is characteristic of a composition in which the β-glucan is substantially in the triple helix aggregate conformation. […]
The molecular weights of fractions A and C were determined at 25° C. at both pH 7 and pH 13, and at 37° C. at pH 7. […] Thus, at a given temperature the ratio of the molecular weights determined at pH 7 and pH 13 is the aggregate number at pH 7 at that temperature. […]

## scleroglucan
pH 7, 25° C.
  aggregate number: about 3
pH 7, 37° C.
  aggregate number: about 3

Source: patent US20070059310A1, “Therapeutic combination compositions and methods of using same” (priority 2005, published 2007)
